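1) Cells in 96-well plates. 2) Compound, 48 h, 5 concentrations. 3) Linear interpolation between surrounding doses. 4) Unreached endpoint = highest concentration. At the GI50, growth is halved.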 Calls of active or inactive are those of the source. Cut-off read from the data, not from the text of the source: active = GI50 up to about 1.1 µM and inactive = higher.
Key:
Test in all cases: NCI tumour cell line growth inhibition, 48 h
DMS-114 = tested on: DMS-114
HCC 2998 = tested on: HCC 2998
M19-MEL = tested on: M19-MEL
A549 = tested on: A549
COLO 205 = tested on: COLO 205
SN12C = tested on: SN12C
CCRF-CEM = tested on: CCRF-CEM
XF498 = tested on: XF498
HOP-92 = tested on: HOP-92
RPMI-8226 = tested on: RPMI-8226
DMS-273 = tested on: DMS-273
HCT-15 = tested on: HCT-15
U-251 = tested on: U-251
SNB-78 = tested on: SNB-78
HL-60 = tested on: HL-60
786-0 = tested on: 786-0
HOP-62 = tested on: HOP-62
A498 = tested on: A498
SF-295 = tested on: SF-295
KM12 = tested on: KM12
SF-539 = tested on: SF-539
SNB-19 = tested on: SNB-19
LXFL 529 = tested on: LXFL 529
OVCAR-4 = tested on: OVCAR-4
LOX IMVI = tested on: LOX IMVI
OVCAR-3 = tested on: OVCAR-3
NCI-H23 = tested on: NCI-H23
M14 = tested on: M14
EKVX = tested on: EKVX
CAKI-1 = tested on: CAKI-1
NCI-H522 = tested on: NCI-H522
SF-268 = tested on: SF-268
SW-620 = tested on: SW-620
SK-MEL-28 = tested on: SK-MEL-28
HCT-116 = tested on: HCT-116
ACHN = tested on: ACHN
K562 = tested on: K562
RXF 393 = tested on: RXF 393
KM-20L2 = tested on: KM-20L2
SR = tested on: SR
NCI-H460 = tested on: NCI-H460
UO-31 = tested on: UO-31
UACC-257 = tested on: UACC-257
TK-10 = tested on: TK-10
OVCAR-8 = tested on: OVCAR-8
MOLT-4 = tested on: MOLT-4
SK-MEL-2 = tested on: SK-MEL-2
SK-MEL-5 = tested on: SK-MEL-5
HOP-18 = tested on: HOP-18
DLD-1 = tested on: DLD-1
Malme-3M = tested on: Malme-3M
NCI-H226 = tested on: NCI-H226
OVCAR-5 = tested on: OVCAR-5
HT-29 = tested on: HT-29
SNB-75 = tested on: SNB-75
T47D = tested on: T47D
SK-OV-3 = tested on: SK-OV-3
BT-549 = tested on: BT-549
Hs-578T = tested on: Hs-578T
MDA-MB-231 = tested on: MDA-MB-231
IGROV-1 = tested on: IGROV-1
PC-3 = tested on: PC-3
MDA-N = tested on: MDA-N
UACC-62 = tested on: UACC-62
MCF7 = tested on: MCF7
NCI/ADR-RES = tested on: NCI/ADR-RES
MDA-MB-435 = tested on: MDA-MB-435
DU-145 = tested on: DU-145

Cc1cc(NCCCCCCCCNc2cc(C)nc3cc(N(C)C)ccc23)c2ccc(N(C)C)cc2n1
GI50 (DMS-114): 1390 nM (inactive) | GI50 (HCC 2998): 4300 nM (inactive) | GI50 (M19-MEL): 2780 nM (inactive) | GI50 (A549): 3310 nM (inactive) | GI50 (COLO 205): 1900 nM (inactive) | GI50 (SN12C): 1640 nM (inactive) | GI50 (CCRF-CEM): 5010 nM (inactive) | GI50 (XF498): 1980 nM (inactive) | GI50 (HOP-92): 2580 nM (inactive) | GI50 (RPMI-8226): 736 nM (active) | GI50 (DMS-273): 2740 nM (inactive) | GI50 (HCT-15): 34800 nM | GI50 (U-251): 1560 nM (inactive) | GI50 (SNB-78): 5470 nM (inactive) | GI50 (HL-60): 711 nM (active) | GI50 (786-0): 7160 nM (inactive) | GI50 (HOP-62): 12200 nM (inactive) | GI50 (A498): 17500 nM (inactive) | GI50 (SF-295): 8650 nM (inactive) | GI50 (KM12): 2820 nM (inactive) | GI50 (SF-539): 3230 nM (inactive) | GI50 (SNB-19): 3090 nM (inactive) | GI50 (LXFL 529): 1690 nM (inactive) | GI50 (OVCAR-4): 4880 nM (inactive) | GI50 (LOX IMVI): 2370 nM (inactive) | GI50 (OVCAR-3): 3860 nM (inactive) | GI50 (NCI-H23): 1430 nM (inactive) | GI50 (M14): 3730 nM (inactive) | GI50 (EKVX): 7100 nM (inactive) | GI50 (CAKI-1): 24300 nM (inactive) | GI50 (NCI-H522): 2750 nM (inactive) | GI50 (SF-268): 3480 nM (inactive) | GI50 (SW-620): 6810 nM (inactive) | GI50 (SK-MEL-28): 933 nM (active) | GI50 (HCT-116): 3400 nM (inactive) | GI50 (ACHN): 12300 nM (inactive) | GI50 (K562): 881 nM (active) | GI50 (RXF 393): 12900 nM (inactive) | GI50 (KM-20L2): 4290 nM (inactive) | GI50 (SR): 2820 nM (inactive) | GI50 (NCI-H460): 3010 nM (inactive) | GI50 (UO-31): 75500 nM (inactive) | GI50 (UACC-257): 3940 nM (inactive) | GI50 (TK-10): > 10000 nM (inactive) | GI50 (OVCAR-8): 6110 nM (inactive) | GI50 (MOLT-4): 2000 nM (inactive) | GI50 (SK-MEL-2): 5130 nM (inactive)

C/C(=N/N)c1ccc2[nH]c3c(C)cc([N+](=O)[O-])c(C)c3c2c1
GI50 (DMS-114): 9890 nM (inactive) | GI50 (HCC 2998): 17500 nM (inactive) | GI50 (M19-MEL): 11300 nM (inactive) | GI50 (A549): 11100 nM (inactive) | GI50 (COLO 205): 11500 nM (inactive) | GI50 (SN12C): 3950 nM (inactive) | GI50 (CCRF-CEM): 3130 nM (inactive) | GI50 (XF498): 11400 nM (inactive) | GI50 (RPMI-8226): 8970 nM (inactive) | GI50 (DMS-273): 4520 nM (inactive) | GI50 (HCT-15): 9550 nM | GI50 (SK-MEL-5): 5000 nM (inactive) | GI50 (HL-60): > 100000 nM (inactive) | GI50 (HOP-18): 10700 nM (inactive) | GI50 (DLD-1): 3180 nM (inactive) | GI50 (786-0): 4600 nM (inactive) | GI50 (HOP-62): 8070 nM (inactive) | GI50 (Malme-3M): 4330 nM (inactive) | GI50 (NCI-H226): 14300 nM (inactive) | GI50 (SF-295): 17100 nM (inactive) | GI50 (OVCAR-5): > 10000 nM (inactive) | GI50 (KM12): > 10000 nM (inactive) | GI50 (SF-539): 4760 nM (inactive) | GI50 (SNB-19): 14400 nM (inactive) | GI50 (OVCAR-4): 14800 nM (inactive) | GI50 (LOX IMVI): 4990 nM (inactive) | GI50 (OVCAR-3): 14900 nM (inactive) | GI50 (M14): 15000 nM (inactive) | GI50 (EKVX): 22200 nM (inactive) | GI50 (CAKI-1): > 10000 nM (inactive) | GI50 (NCI-H522): 8510 nM (inactive) | GI50 (SF-268): 8220 nM (inactive) | GI50 (HT-29): 8200 nM (inactive) | GI50 (SW-620): 7530 nM (inactive) | GI50 (SK-MEL-28): 6070 nM (inactive) | GI50 (HCT-116): 4090 nM (inactive) | GI50 (ACHN): 9380 nM (inactive) | GI50 (K562): 2930 nM (inactive) | GI50 (SR): 5830 nM (inactive) | GI50 (SNB-75): 22900 nM (inactive) | GI50 (NCI-H460): 5870 nM (inactive) | GI50 (UO-31): 10500 nM (inactive) | GI50 (UACC-257): 18600 nM (inactive) | GI50 (TK-10): 12200 nM (inactive) | GI50 (OVCAR-8): 5300 nM (inactive) | GI50 (MOLT-4): 2790 nM (inactive) | GI50 (SK-MEL-2): 11300 nM (inactive)

C=C1C(O)C2(O)OCC34C(CC5C(C)=CC(=O)C(O)C5(C)C23)OC(=O)C(OC(=O)C/C=C(\C)CCCCC)C14 (stereo unspecified)
GI50 (T47D): < 1 nM (active) | GI50 (DMS-114): 12.5 nM (active) | GI50 (HCC 2998): 13.6 nM (active) | GI50 (M19-MEL): 13.6 nM (active) | GI50 (A549): 17 nM (active) | GI50 (COLO 205): 15.4 nM (active) | GI50 (SN12C): 19.9 nM (active) | GI50 (CCRF-CEM): 12.5 nM (active) | GI50 (XF498): 15.3 nM (active) | GI50 (HOP-92): 14.7 nM (active) | GI50 (RPMI-8226): 14 nM (active) | GI50 (HCT-15): 31.6 nM | GI50 (U-251): 12.5 nM (active) | GI50 (SK-OV-3): 13.3 nM (active) | GI50 (SNB-78): 14.5 nM (active) | GI50 (HL-60): 12.5 nM (active) | GI50 (HOP-18): 34.3 nM (active) | GI50 (DLD-1): 14.6 nM (active) | GI50 (BT-549): < 1 nM (active) | GI50 (786-0): 1.03 nM (active) | GI50 (HOP-62): 14.8 nM (active) | GI50 (Hs-578T): < 1 nM (active) | GI50 (MDA-MB-231): 3.15 nM (active) | GI50 (IGROV-1): 13.3 nM (active) | GI50 (PC-3): < 1 nM (active) | GI50 (A498): 14.8 nM (active) | GI50 (NCI-H226): 14.4 nM (active) | GI50 (MDA-N): < 1 nM (active) | GI50 (SF-295): 12.5 nM (active) | GI50 (UACC-62): 14.7 nM (active) | GI50 (OVCAR-5): 23.1 nM (active) | GI50 (KM12): 12.9 nM (active) | GI50 (SF-539): 15.3 nM (active) | GI50 (SNB-19): 14.6 nM (active) | GI50 (OVCAR-4): 12.5 nM (active) | GI50 (NCI-H23): 14.7 nM (active) | GI50 (M14): < 1 nM (active) | GI50 (EKVX): 19.8 nM (active) | GI50 (CAKI-1): 42.7 nM (active) | GI50 (NCI-H522): 12.5 nM (active) | GI50 (SF-268): 15.2 nM (active) | GI50 (HT-29): 14.1 nM (active) | GI50 (SW-620): 15.3 nM (active) | GI50 (SK-MEL-28): 12.8 nM (active) | GI50 (HCT-116): 12.5 nM (active) | GI50 (ACHN): < 1 nM (active) | GI50 (K562): 12.5 nM (active) | GI50 (RXF 393): 15.2 nM (active) | GI50 (KM-20L2): 14.9 nM (active) | GI50 (SR): < 10 nM (active) | GI50 (SNB-75): 15.3 nM (active) | GI50 (MCF7): 12.5 nM (active) | GI50 (NCI-H460): 12.5 nM (active) | GI50 (UO-31): 78.7 nM (active) | GI50 (UACC-257): 12.5 nM (active) | GI50 (NCI/ADR-RES): 624 nM (active) | GI50 (TK-10): 1.77 nM (active) | GI50 (OVCAR-8): 12.5 nM (active) | GI50 (MDA-MB-435): < 1 nM (active) | GI50 (DU-145): < 1 nM (active) | GI50 (MOLT-4): 12.5 nM (active) | GI50 (SK-MEL-2): 25.1 nM (active)
